# Patent US20200367818A1, “DEVICES, SYSTEMS, AND METHODS FOR TUMOR VISUALIZATION AND REMOVAL” (UNIVERSITY HEALTH NETWORK, priority 2018, published 2020)
# Counter-ions that a name gives are not always drawn.
# System: invasive breast carcinoma lumpectomy/mastectomy specimens and lymph nodes
# Experiment: 5-ALA breast study: PpIX fluorescence imaging of breast tumor specimens and lymph nodes with handheld device (405 nm excitation)
# Type: in vivo, human
# Conditions: multispectral or multiband fluorescence imaging with 5-ALA
# Protocol: In one example, oral 5-ALA was dissolved in water and administered by a study nurse between 2-4 h before surgery in patients at dosages of 15 or 30 mg/kg 5-ALA.
# By viewing lymph nodes prior to removal from the subject's body, it is possible to observe, using the device 100, red fluorescence emissions from cells containing induced porphyrins that are within the lymph node.
# When combined with 5-ALA red FL, the differing emission spectra of normal tissue AF and PpIX are easily distinguishable visually (see FIGS. 15 and 16). […] The 405 nm excitation LEDs and the dual band emission filter (500-545 nm and 600-660 nm) are suitable for breast tumor imaging using 5-ALA because they provide a composite image comprised of red PpIX and green connective tissue FL, and broad green-to-red FL of adipose tissue (appears pink).
compound,measurement,value
"NCC(=O)CCC(=O)O [5-ALA, Aminolevulinic acid hydrochloride]",depth below the imaged tissue surface at which otherwise clinically occult disease is detected,≤ 2.6 mm
